Data published in patent publication US20260130395A1, “Water Dispersible Botanical Compositions” (Aquila Black Limited, priority 2021, published 2026).

Test: Stability of cannabinoid compounds and Vitamin E components in Beverage 2 (AB Red) by LCMSMS
Assay type: physicochemical
Description: The stability of the plant-derived cannabinoid compounds and Vitamin E components of the beverage stored 8° C. and at room temperature (21-25° C.) were monitored, over a period of 570 days via Liquid Chromatography-tandem Mass Spectrometry [LCMSMS, AGilent 6590, C18, 3×50 mm, 2.7 m (Agilent InfinityLab Poroshell 120 EC-C18), Electrospray Ionization detector]. The LCMSMS was calibrated for 0-50 ng/ml cannabinoids with the same resin material used in the preparation of the concentrates. At each time period, 100 ml of beverage was diluted with 10 ml of methanol and injected into the LCMSMS for analysis.

Cc1c(C)c2c(c(C)c1OC(=O)CCC(=O)O)CC[C@@](C)(CCC[C@H](C)CCC[C@H](C)CCCC(C)C)O2 [α-Tocopheryl succinate]
Stability of Vitamin Es in AB Red (stored at 8° C., 0 days): 12.5 µg/mL
Stability of Vitamin Es in AB Red (stored at 8° C., 1 days): 11.7 µg/mL
Stability of Vitamin Es in AB Red (stored at 8° C., 2 days): 11.7 µg/mL
Stability of Vitamin Es in AB Red (stored at 8° C., 3 days): 11.7 µg/mL
Stability of Vitamin Es in AB Red (stored at 8° C., 5 days): 11.5 µg/mL
Stability of Vitamin Es in AB Red (stored at 8° C., 8 days): 12.6 µg/mL
Stability of Vitamin Es in AB Red (stored at 8° C., 9 days): 11.8 µg/mL
Stability of Vitamin Es in AB Red (stored at 8° C., 10 days): 12.6 µg/mL
Stability of Vitamin Es in AB Red (stored at 8° C., 11 days): 12.1 µg/mL
Stability of Vitamin Es in AB Red (stored at 8° C., 12 days): 12.7 µg/mL
Stability of Vitamin Es in AB Red (stored at 8° C., 15 days): 12.5 µg/mL
Stability of Vitamin Es in AB Red (stored at 8° C., 16 days): 11.5 µg/mL
Stability of Vitamin Es in AB Red (stored at 8° C., 17 days): 12.4 µg/mL
Stability of Vitamin Es in AB Red (stored at 8° C., 18 days): 11.9 µg/mL
Stability of Vitamin Es in AB Red (stored at 8° C., 19 days): 11.7 µg/mL
Stability of Vitamin Es in AB Red (stored at 8° C., 22 days): 11.9 µg/mL
Stability of Vitamin Es in AB Red (stored at 8° C., 23 days): 12.0 µg/mL
Stability of Vitamin Es in AB Red (stored at 8° C., 24 days): 12.2 µg/mL
Stability of Vitamin Es in AB Red (stored at 8° C., 25 days): 12.0 µg/mL
Stability of Vitamin Es in AB Red (stored at 8° C., 26 days): 12.5 µg/mL
Stability of Vitamin Es in AB Red (stored at 8° C., 29 days): 11.6 µg/mL
Stability of Vitamin Es in AB Red (stored at 8° C., 30 days): 12.4 µg/mL
Stability of Vitamin Es in AB Red (stored at 8° C., 60 days): 11.4 µg/mL
Stability of Vitamin Es in AB Red (stored at 8° C., 90 days): 11.5 µg/mL
Stability of Vitamin Es in AB Red (stored at 8° C., 120 days): 12.2 µg/mL
Stability of Vitamin Es in AB Red (stored at 8° C., 150 days): 11.5 µg/mL
Stability of Vitamin Es in AB Red (stored at 8° C., 180 days): 11.4 µg/mL
Stability of Vitamin Es in AB Red (stored at 8° C., 210 days): 11.4 µg/mL
Stability of Vitamin Es in AB Red (stored at 8° C., 240 days): 11.6 µg/mL
Stability of Vitamin Es in AB Red (stored at 8° C., 270 days): 11.5 µg/mL
Stability of Vitamin Es in AB Red (stored at 8° C., 300 days): 11.2 µg/mL
Stability of Vitamin Es in AB Red (stored at 8° C., 330 days): 11.7 µg/mL
Stability of Vitamin Es in AB Red (stored at 8° C., 360 days): 11.3 µg/mL
Stability of Vitamin Es in AB Red (stored at 8° C., 390 days): 11.2 µg/mL
Stability of Vitamin Es in AB Red (stored at 8° C., 420 days): 11.0 µg/mL
Stability of Vitamin Es in AB Red (stored at 8° C., 450 days): 11.2 µg/mL
Stability of Vitamin Es in AB Red (stored at 8° C., 480 days): 10.9 µg/mL
Stability of Vitamin Es in AB Red (stored at 8° C., 510 days): 10.8 µg/mL
Stability of Vitamin Es in AB Red (stored at 8° C., 540 days): 10.9 µg/mL
Stability of Vitamin Es in AB Red (stored at 8° C., 570 days): 10.6 µg/mL
Stability of Vitamin Es in AB Red (stored at 21-25° C., 0 days): 12.5 µg/mL
Stability of Vitamin Es in AB Red (stored at 21-25° C., 1 days): 12.5 µg/mL
Stability of Vitamin Es in AB Red (stored at 21-25° C., 2 days): 12.0 µg/mL
Stability of Vitamin Es in AB Red (stored at 21-25° C., 3 days): 11.9 µg/mL
Stability of Vitamin Es in AB Red (stored at 21-25° C., 5 days): 11.9 µg/mL
Stability of Vitamin Es in AB Red (stored at 21-25° C., 8 days): 12.0 µg/mL
Stability of Vitamin Es in AB Red (stored at 21-25° C., 9 days): 11.7 µg/mL
Stability of Vitamin Es in AB Red (stored at 21-25° C., 10 days): 12.0 µg/mL
Stability of Vitamin Es in AB Red (stored at 21-25° C., 11 days): 12.0 µg/mL
Stability of Vitamin Es in AB Red (stored at 21-25° C., 12 days): 12.4 µg/mL
Stability of Vitamin Es in AB Red (stored at 21-25° C., 15 days): 11.6 µg/mL
Stability of Vitamin Es in AB Red (stored at 21-25° C., 16 days): 11.6 µg/mL
Stability of Vitamin Es in AB Red (stored at 21-25° C., 17 days): 12.6 µg/mL
Stability of Vitamin Es in AB Red (stored at 21-25° C., 18 days): 12.1 µg/mL
Stability of Vitamin Es in AB Red (stored at 21-25° C., 19 days): 11.9 µg/mL
Stability of Vitamin Es in AB Red (stored at 21-25° C., 22 days): 11.6 µg/mL
Stability of Vitamin Es in AB Red (stored at 21-25° C., 23 days): 12.7 µg/mL
Stability of Vitamin Es in AB Red (stored at 21-25° C., 24 days): 12.4 µg/mL
Stability of Vitamin Es in AB Red (stored at 21-25° C., 25 days): 11.9 µg/mL
Stability of Vitamin Es in AB Red (stored at 21-25° C., 26 days): 12.1 µg/mL
Stability of Vitamin Es in AB Red (stored at 21-25° C., 29 days): 12.4 µg/mL
Stability of Vitamin Es in AB Red (stored at 21-25° C., 30 days): 12.1 µg/mL
Stability of Vitamin Es in AB Red (stored at 21-25° C., 60 days): 11.7 µg/mL
Stability of Vitamin Es in AB Red (stored at 21-25° C., 90 days): 11.6 µg/mL
Stability of Vitamin Es in AB Red (stored at 21-25° C., 120 days): 11.5 µg/mL
Stability of Vitamin Es in AB Red (stored at 21-25° C., 150 days): 11.4 µg/mL
Stability of Vitamin Es in AB Red (stored at 21-25° C., 180 days): 12.3 µg/mL
Stability of Vitamin Es in AB Red (stored at 21-25° C., 210 days): 11.6 µg/mL
Stability of Vitamin Es in AB Red (stored at 21-25° C., 240 days): 11.6 µg/mL
Stability of Vitamin Es in AB Red (stored at 21-25° C., 270 days): 11.0 µg/mL
Stability of Vitamin Es in AB Red (stored at 21-25° C., 300 days): 11.4 µg/mL
Stability of Vitamin Es in AB Red (stored at 21-25° C., 330 days): 11.4 µg/mL
Stability of Vitamin Es in AB Red (stored at 21-25° C., 360 days): 11.1 µg/mL
Stability of Vitamin Es in AB Red (stored at 21-25° C., 390 days): 10.8 µg/mL
Stability of Vitamin Es in AB Red (stored at 21-25° C., 420 days): 11.0 µg/mL
Stability of Vitamin Es in AB Red (stored at 21-25° C., 450 days): 11.2 µg/mL
Stability of Vitamin Es in AB Red (stored at 21-25° C., 480 days): 10.4 µg/mL
Stability of Vitamin Es in AB Red (stored at 21-25° C., 510 days): 10.6 µg/mL
Stability of Vitamin Es in AB Red (stored at 21-25° C., 540 days): 10.3 µg/mL
Stability of Vitamin Es in AB Red (stored at 21-25° C., 570 days): 10.6 µg/mL
